Assay type in all cases: cell-based
The subject of one assay is MRSA. Description: Inhibition of growth of planktonic MRSA, OD600 (Example 10). The settings on record: in combination with gentamicin, compared to gentamicin alone; 6 h; phospholipid 256, 512, 1024 μg/ml. On the procedure:
We performed in vitro studies of the capacity of phospholipids together with antibiotics to inhibit the growth of planktonic bacteria. The tests were conducted as follows. Freshly grown MRSA was quantitated and placed in 96-well plates together with gentamicin alone, phospholipids plus gentamicin, or control solutions. Two different phospholipids (MAPCHO-10 and MAPCHO-12) were tested at three different phospholipid test concentrations (256 μg/ml, 512 μg/ml, and 1024 μg/ml). After 24 hours at 37 degrees C., media was removed and fresh medium was added and the 96-well plates were incubated at 37 degrees C. for 6 hours. Bacterial density was then analyzed and measured at OD600.

The test system of assay [1] is S. aureus biofilm formation. The assay can be described thus: Prevention of S. aureus biofilm formation at 6 h, crystal violet (Example 9). The settings on record: in combination with gentamicin, phospholipid 256, 512, 1024 μg/ml. How it is done:
We performed in vitro tests of the capacity of phospholipids together with antibiotics to prevent formation of biofilms. Freshly grown S. aureus was quantitated and placed in 96-well plates together with gentamicin alone, phospholipids plus gentamicin, or control solutions. Two different phospholipids ([…]-10 and […]-12) were tested at three different phospholipid test concentrations (256 μg/ml, 512 μg/ml, and 1024 μg/ml). After 6 hours at 37 degrees C., the fluids were removed and the wells stained with crystal violet, and then the density of crystal violet in the wells was quantitated.

The test system of assay [2] is P. aeruginosa in preformed biofilm. The assay can be described thus: Bacterial density of P. aeruginosa in preformed biofilm, OD600 (Example 7). The settings on record: in combination with gentamicin; 6 h; phospholipid 512, 1024, 2048 μg/ml; FIGS. 10A-10D. On the procedure:
We performed in vitro studies of the capacity of phospholipids together with antibiotics to eradicate preformed bacterial biofilms. The tests were conducted as follows. Biofilm formation was obtained by culturing P. aeruginosa in cation-adjusted Mueller Hinton Broth after incubation at 37 degrees C. for 24 hours in 96 well plates. The medium was then removed and replaced by treatment solutions of gentamicin, phospholipids plus gentamicin, or control solutions. Four different phospholipids (MAPCHO-10, MAPCHO-12, MAPCHO-14, and MAPCHO-16) were tested at three different phospholipid test concentrations (512 μg/ml, 1024 μg/ml, and 2048 μg/ml). After 24 hours at 37 degrees C., media was removed and fresh medium was added and the 96-well plates were incubated at 37 degrees C. for 6 hours. Bacterial density was then analyzed and measured at OD600.

SMILES strings stand for the structures.

With `CCCCCCCCCCCCOP(=O)([O-])OCC[N+](C)(C)C` [MAPCHO-12, N-dodecylphosphocholine], the “inhibition of MRSA growth” value in the assay with MRSA is “strong inhibition”. Besides, in assay [1], the “prevention of S. aureus biofilm formation compared to gentamicin alone” value is “more effective”. For the same compound, in assay [2], the “inhibition of P. aeruginosa bacterial growth in preformed biofilm relative to gentamicin alone” value is “more effective”.

For the origin of these results see US11413297B2, “Therapies for treating and preventing chronic rhinosinusitis” (Avanti Polar Lipids, LLC, priority 2017, dated 2022).
